Experimental data published in patent US20150191445A1, “ACYL-HYDRAZONE AND OXADIAZOLE COMPOUNDS, PHARMACEUTICAL COMPOSITIONS CONTAINING THE SAME AND USES THEREOF” (Universidade Federal de Santa Catarina, priority 2011, published 2015).
Entries after “also recorded” stand apart in the source; their conditions may differ.

Columns and labels:
[1] = biological target: Trypanosoma cruzi cruzain (Trypanosoma cruzi, UniProt P25779); details: cited from earlier work
Jurkat cells [2] = experiment: Quantification of apoptosis with Annexin V/PI labeling; assay type: cell-based, human; details: 125 nM, 18 h
Experimental: (§1) The cells were incubated for 12 hours in fresh medium before experiments. Two million cells from the Jurkat line were incubated for 12 h, 18 h, 24 h and 30 h in RPMI-640 medium supplemented with 10% Fetal Bovine Serum (FCS) and 0.2% Penicillin/Streptomycin (PS) with a concentration of 125 nM of compound 07 or DMSO (vehicle).
The cells treated or not with compound 07 were rinsed in PBS and labeled with Annexin V Apoptosis Assay kit (Invitrogen). Briefly, cells were resuspended in appropriate buffer containing calcium and incubated for 15 min with Annexin V-FITC and propidium iodide 5 μg/mL. 10,000 events were collected on FACSCalibur flow cytometer, excluding any debris by forward vs standard, side scatter, with quantification of green and red fluorescence.

Jurkat cells [3] = experiment: Cell cycle analysis, propidium iodide flow cytometry; assay type: cell-based, human; details: 125 nM, 18 h
Experimental: as §1
The cells treated or not with compound 07 were fixed in 70% ethanol for 2 hours, washed in PBS and incubated for 15 min at 37° C. in 1 mL of Triton X-100 0.1% 0.2 mg/mL of RNAse and 20 μg/mL propidium iodide in PBS. 20,000 events were collected on FACSCalibur flow cytometer with red fluorescence quantification, excluding any cell aggregates by the standard width vs. red fluorescence peak area. The data deconvolution to obtain the percentage of cells in each phase of cell cycle was performed using ModFit software v2.0.

[4] = test system: healthy and phytohemagglutinin-stimulated lymphocytes; experiment: MTT assay on normal lymphocytes stimulated with phytohemagglutinin; assay type: cell-based, human; details: for Percentage of survival: 48 h, MTT
Experimental: for the test of compound 07 against normal lymphocytes, blood from human donors was separated in a ficoll gradient and the mononuclear cells were cultivated at 200,000 cells/well, in 80 microliters of RPMI-1640 (containing 10% FBS, 100 IU/mL penicillin and 100 μg/mL streptomycin) and 20 microliters of phytohemagglutinin solution (Cultilab) in each well for stimulation of T lymphocytes. Compound 07 was added in serial dilutions (50%) from 300 to 1 nm. As a control, parallel tests were run with cells from leukemic Jurkat and REH cell lines, and experiments with colchicine with the same concentrations as compound 07. Cytotoxicity was assessed after 48 hours by the MTT method, as described Above.

[5] = test system: cell cycle regulatory proteins in Jurkat cells; experiment: Western blot of cell cycle regulatory proteins; assay type: cell-based, human; details: 125 nM
Experimental: as §1
The cells treated or not with compound 07 were lysed in buffer containing 50 mM Tris pH 7.7, 150 mM NaCl, 5 mM EDTA, 1% Sigma phosphatase inhibitor cocktail I, 1% Sigma phosphatase inhibitor cocktail II, 1% Sigma protease inhibitor cocktail II, 1% Igepal, 0.1% SDS, 0.5% sodium deoxycholate and 1 mM PMSF. After incubation for 30 min on ice and 3 cycles of freezing and thawing, extracts were centrifuged at 10,000 rpm for 20 min at 4° C. to sediment membrane debris. Of the supernatant, we proceeded with protein quantification by Bradford reagent (Biorad). The samples were boiled for 5 min with prior addition of β-mercaptoethanol and 100 μg of protein were subjected to acrylamide:bisacrylamide gel electrophoresis (39:1) 10% with SDS and electrotransferred to 0.45 μm nitrocellulose membrane (Schleicher & Schuell). […]

[6] = test system: human leukemic Jurkat cells and HEK; experiment: Screening of compounds by cell viability assay (MTT) in leukemic cells; assay type: cell-based; details: leukemic cells of Jurkat and HEK strains
Experimental: RPMI-1640 medium with 10% FBS (fetal bovine serum), 100 IU/mL penicillin, 100 µg/mL streptomycin and incubated at 37° C. and 5% CO2. Cytotoxicity assays were performed according to the method described in the literature (Pieters, R.; et al. In vitro drug sensitivity of cells from children with leukemia using the MTT assay with improved culture conditions. Blood, 1990, 76, 2327-2336; Pieters, R.; et al. Relation of cellular drug resistance to long-term clinical outcome in childhood acute lymphoblastic leukaemia. Lancet, 1991, 338, 399-403 e Kaspers, G. J.; et al. In vitro cellular drug resistance and prognosis in newly diagnosed childhood acute lymphoblastic leukemia. Blood, 1997, 90, 2723). Cells were resuspended at a concentration of 3.75 10^5 cells/mL in culture medium as described. Eighty microliters of this suspension were seeded into plates with 96 round-bottom wells, containing 20 microliters of different concentrations of compound or vehicle alone. Each treatment was done in triplicate. […] After incubating overnight, absorbance reading at 570 nm was carried out. The percentage of cells surviving the treatment were calculated relative to the number of surviving cells in the medium without addition of the compounds in question (“negative control”). […]

Chain of Trypanosoma cruzi cruzain (P25779 123-467): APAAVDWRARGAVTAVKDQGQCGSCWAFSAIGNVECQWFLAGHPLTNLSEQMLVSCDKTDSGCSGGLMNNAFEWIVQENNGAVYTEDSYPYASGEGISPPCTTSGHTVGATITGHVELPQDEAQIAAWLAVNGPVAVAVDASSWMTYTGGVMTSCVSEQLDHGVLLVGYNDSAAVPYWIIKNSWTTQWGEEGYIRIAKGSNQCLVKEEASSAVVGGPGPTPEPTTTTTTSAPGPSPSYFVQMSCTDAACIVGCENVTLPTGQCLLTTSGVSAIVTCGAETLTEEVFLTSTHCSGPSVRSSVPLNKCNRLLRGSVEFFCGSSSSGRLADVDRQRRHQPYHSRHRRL

COc1cc(C(=O)NN=Cc2cccc3ccccc23)cc(OC)c1OC [Compound 07]
inhibitory activity of cruzain [1]: did not show inhibitory activity | induction of apoptosis (Jurkat cells [2]): strong inducer of apoptosis | effect on cell cycle (Jurkat cells [3]): cell cycle arrest in G2/M | effect on normal lymphocytes induced by phytohemagglutinin [4]: do not appear to affect normal lymphocytes | selectivity for leukemic cells compared to healthy human lymphocytes [4]: ~10 times | Percentage of survival ([4]; 4.6 nM): 103% | Percentage of survival ([4]; 9.38 nM): 105% | Percentage of survival ([4]; 18.75 nM): 105% | Percentage of survival ([4]; 37.5 nM): 101% | Percentage of survival ([4]; 75 nM): 108% | Percentage of survival ([4]; 150 nM): 107% | Percentage of survival ([4]; 300 nM): 95% | expression of CDKs [5]: repression of the expression of CDK4 and to a lesser extent also of CDK6, shorter isoform of CDK2 and larger isoform of CDK9 | phosphorylation of Chk2 ([5]; after 12 hours of treatment): possible to detect the phosphorylation of Chk2 in Thr68 | antileukemic activity [6]: excellent antileukemic activity; also recorded: significant antileukemic activity
